Legend:
EGFR (d746-750) = EGFR (d746-750) (Homo sapiens (Human), UniProt P00533, DEL746-750); test: Biochemical EGFR inhibition assay, EGFR (d746-750); conditions: Caliper mobility shift; 1.0 mM ATP or ATP Km; read-out: Enz EGFR_Exon19-del746-750 IC50
[1] = target: pEGFR (Tyr1068) in PC-9 cells (Ex19Del) (Homo sapiens (Human), UniProt P00533, DEL746-750); test: PC-9 pEGFR AlphaLISA assay; format: cell-based; conditions: 4 hours incubation, p-EGFR (Tyr1068) AlphaLISA, read-out: Ext pEGFR_PC-9 Ex19Del IC50
Outline: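 Compounds are added in ten 4-fold dilutions to adherent cells grown in serum-containing (10% FBS) phenol-free DMEM and left for 4 hours at 37° C. Phosphorylated receptor in lysates is quantified by bead-based AlphaLISA. IC50 values derive from inhibition plotted against log dose.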

EGFR L858R = EGFR L858R (Homo sapiens (Human), UniProt P00533, L858R); test: Biochemical EGFR inhibition assay, EGFR L858R; conditions: Caliper mobility shift; 1.0 mM ATP or ATP Km; read-out: Enz EGFR_L858R IC50

Compound | IC50 (EGFR (d746-750)) [nM] | IC50 [1] [nM] | IC50 (EGFR L858R) [nM]
COc1cc2ncnc(-c3cn(CCO)nc3-c3ccccc3)c2cc1NC(=O)C12CC(C1)C2 [Example 265, N-(4-(1-(2-hydroxyethyl)-3-phenyl-1H-pyrazol-4-yl)-7-methoxyquinazolin-6-yl)bicyclo[1.1.1]pentane-1-carboxamide] | 1.8 | 2.3 | 3.2
7-methoxy-6-(2-methyl-2H-indazol-4-yl)-4-(1-methyl-3-phenyl-1H-pyrazol-4-yl)pyrido[3,2-d]pyrimidine [Example 155] | 2 | 5.1 | 7.3
COc1cc2ncnc(-c3cn(C)nc3-c3ccccc3)c2cc1NC(=O)c1ccncc1Cl [Example 190, 3-chloro-N-(7-methoxy-4-(1-methyl-3-phenyl-1H-pyrazol-4-yl)quinazolin-6-yl)isonicotinamide] | 0.8 | 1.5 | 1.1
Cn1cc(-c2ncnc3cc(O)c(NC(=O)C4(C(F)(F)F)CC4)nc23)c(-c2ccccc2)n1 [Example 464, N-[7-hydroxy-4-(1-methyl-3-phenyl-1H-pyrazol-4-yl)pyrido[3,2-d]pyrimidin-6-yl]-1-(trifluoromethyl)cyclopropane-1-carboxamide] | 0.3 | 1.4 | 0.9
COc1cc2ncnc(-c3cn(C)nc3-c3ccccc3)c2cc1NC(=O)N1C[C@@H](C)N(C)C[C@@H]1C [Example 182, (2S,5R)—N-(7-methoxy-4-(1-methyl-3-phenyl-1H-pyrazol-4-yl)quinazolin-6-yl)-2,4,5-trimethylpiperazine-1-carboxamide] | 1.8 | 5.2 | 4.1
COc1cc2ncnc(-c3cn(C)nc3-c3ccccc3)c2nc1O[C@@H](C)c1cnnn1C [Example 42, (S)-7-methoxy-6-(1-(1-methyl-1H-1,2,3-triazol-5-yl)ethoxy)-4-(1-methyl-3-phenyl-1H-pyrazol-4-yl)pyrido[3,2-d]pyrimidine] | 2.9 | 43.9 | 9.6
COc1cc2ncnc(-c3cn(C)nc3-c3ccccc3)c2nc1NC(=O)[C@@H]1C[C@H]2C[C@H]2N1C [Example 418, (1R,3S,5R)—N-(7-methoxy-4-(1-methyl-3-phenyl-1H-pyrazol-4-yl)pyrido[3,2-d]pyrimidin-6-yl)-2-methyl-2-azabicyclo[3.1.0]hexane-3-carboxamide] | 0.6 | 1.8 | 1.8
CN(C)CCOc1cc2ncnc(-c3cn(C)nc3-c3ccccc3)c2cc1NC(=O)c1ccccc1F [Example 300, N-(7-(2-(dimethylamino)ethoxy)-4-(1-methyl-3-phenyl-1H-pyrazol-4-yl)quinazolin-6-yl)-2-fluorobenzamide] | 1.7 | 3.5 | 5
COc1cc2ncnc(-c3cn(C)nc3-c3ccccc3)c2cc1[C@@H]1CN(C)CCO1 [Example 130, (R)-2-(7-methoxy-4-(1-methyl-3-phenyl-1H-pyrazol-4-yl)quinazolin-6-yl)-4-methylmorpholine] | 5.2 | 16.1 | 21.5
CCOc1cc2ncnc(-c3cn(C)nc3-c3ccccc3)c2cc1N1CCN(C)C[C@@H]1C [Example 174, (S)-6-(2,4-dimethylpiperazin-1-yl)-7-ethoxy-4-(1-methyl-3-phenyl-1H-pyrazol-4-yl)quinazoline] | 2.3 | 3.4 | 2.8
COc1cc2ncnc(-c3cn(C)nc3-c3ccccc3)c2cc1NC(=O)c1cnc(C2CC2)s1 [Example 209, 2-cyclopropyl-N-(7-methoxy-4-(1-methyl-3-phenyl-1H-pyrazol-4-yl)quinazolin-6-yl)thiazole-5-carboxamide] | 0.8 | 0.9 | 1.5
CCn1cc(-c2ncnc3cc(OC)c(NC(=O)C45CC(N(C)C)(C4)C5)nc23)c(-c2ccc(F)cc2)n1 [Example 405, 3-(dimethylamino)-N-(4-(1-ethyl-3-(4-fluorophenyl)-1H-pyrazol-4-yl)-7-methoxypyrido[3,2-d]pyrimidin-6-yl)bicyclo[1.1.1]pentane-1-carboxamide] | 0.8 | 1.7 | 2
COc1cc2ncnc(-c3cn(C)nc3-c3ccc(F)cc3)c2nc1NC(=O)C1(C(F)(F)F)CC1 [Example 362, N-(4-(3-(4-fluorophenyl)-1-methyl-1H-pyrazol-4-yl)-7-methoxypyrido[3,2-d]pyrimidin-6-yl)-1-(trifluoromethyl)cyclopropane-1-carboxamide] | 0.5 | 0.7 | 1.1
COc1cc2ncnc(-c3cn(C)nc3-c3ccccc3)c2cc1O[C@H]1CCN(C)C[C@@H]1F [Example 2, 6-(((3S,4S)-3-fluoro-1-methylpiperidin-4-yl)oxy)-7-methoxy-4-(1-methyl-3-phenyl-1H-pyrazol-4-yl)quinazoline] | 1.9 | 4.9 | 4.3
COc1cc2ncnc(-c3cn(C)nc3-c3ccccc3)c2nc1O[C@@H](C)c1csc(C)n1 [Example 33, (S)-4-(1-((7-methoxy-4-(1-methyl-3-phenyl-1H-pyrazol-4-yl)pyrido[3,2-d]pyrimidin-6-yl)oxy)ethyl)-2-methylthiazole] | 0.7 | 0.8 | 1.1
COc1cc2ncnc(-c3cn(C)nc3-c3ccccc3)c2cc1NC(=O)C[C@@H]1CCCO1 [Example 281, (S)—N-(7-methoxy-4-(1-methyl-3-phenyl-1H-pyrazol-4-yl)quinazolin-6-yl)-2-(tetrahydrofuran-2-yl) acetamide] | 1.4 | 2.3 | 2.2
COc1cc2ncnc(-c3cn(C)nc3-c3ccccc3)c2cc1OC(=O)N1CCNCC1(C)C [Example 86, 7-methoxy-4-(1-methyl-3-phenyl-1H-pyrazol-4-yl)quinazolin-6-yl 2,2-dimethylpiperazine-1-carboxylate] | 2.5 | 5.8 | 5
COc1cc2ncnc(-c3cn(CC(F)F)nc3-c3ccccc3)c2cc1C1(O)CC1 [Example 126, 1-(4-(1-(2,2-difluoroethyl)-3-phenyl-1H-pyrazol-4-yl)-7-methoxyquinazolin-6-yl)cyclopropan-1-ol] | 0.9 | 3.2 | 1.9
COc1cc2ncnc(-c3cn(C)nc3-c3ccccc3)c2cc1NC(=O)c1c(F)cccc1F [Example 331, 2,6-difluoro-N-(7-methoxy-4-(1-methyl-3-phenyl-1H-pyrazol-4-yl)quinazolin-6-yl)benzamide] | 1 | 1.5 | 1.7
COc1cc2ncnc(-c3cn(C)nc3-c3ccccc3)c2cc1NC(=O)c1cccc(F)c1C [Example 200, 3-fluoro-N-(7-methoxy-4-(1-methyl-3-phenyl-1H-pyrazol-4-yl)quinazolin-6-yl)-2-methylbenzamide] | 2.4 | 8.4 | 5.7
COc1cc2ncnc(-c3cn(C)nc3-c3ccccc3)c2cc1NC(=O)C[C@H]1CCCO1 [Example 280, (R)—N-(7-methoxy-4-(1-methyl-3-phenyl-1H-pyrazol-4-yl)quinazolin-6-yl)-2-(tetrahydrofuran-2-yl) acetamide] | 1.7 | 2.5 | 2.4
COc1cc2ncnc(-c3cn(C)nc3-c3ccccc3)c2cc1OC1COCCOC1 [Example 21, 6-((1,4-dioxepan-6-yl)oxy)-7-methoxy-4-(1-methyl-3-phenyl-1H-pyrazol-4-yl)quinazoline] | 3 | 10.5 | 7.4
COc1cc2ncnc(-c3cn(C)nc3-c3ccccc3)c2cc1NC(=O)[C@H](C)CN(C)C (single isomer, unassigned) [Example 239, (R)-3-(dimethylamino)-N-(7-methoxy-4-(1-methyl-3-phenyl-1H-pyrazol-4-yl)quinazolin-6-yl)-2-methylpropanamide or (S)-3-(dimethylamino)-N-(7-methoxy-4-(1-methyl-3-phenyl-1H-pyrazol-4-yl)quinazolin-6-yl)-2-methylpropanamide] | 1.7 | 4 | 4.1
COc1cc2ncnc(-c3cn(C)nc3-c3ccccc3)c2cc1NC(=O)C1CCN1 (stereo not drawn) [Example 228, N-(7-methoxy-4-(1-methyl-3-phenyl-1H-pyrazol-4-yl)quinazolin-6-yl)azetidine-2-carboxamide] | 1.7 | 5.6 | 2.8
COc1cc2ncnc(-c3cn(C)nc3-c3ccccc3)c2nc1O[C@H](C)c1cscn1 (single isomer, unassigned) [Example 49, (R)-4-(1-((7-methoxy-4-(1-methyl-3-phenyl-1H-pyrazol-4-yl)pyrido[3,2-d]pyrimidin-6-yl)oxy)ethyl)thiazole or (S)-4-(1-((7-methoxy-4-(1-methyl-3-phenyl-1H-pyrazol-4-yl)pyrido[3,2-d]pyrimidin-6-yl)oxy)ethyl)thiazole] | 0.6 | 1.2 | 1.3
COc1cc2ncnc(-c3cn(C)nc3-c3ccccc3)c2nc1OC(=O)N1CCOC[C@H]1C [Example 56, 7-methoxy-4-(1-methyl-3-phenyl-1H-pyrazol-4-yl)pyrido[3,2-d]pyrimidin-6-yl (R)-3-methylmorpholine-4-carboxylate] | 2.1 | 3 | 3.4

Source: US20250236608A1, “EGFR INHIBITORS” (Blueprint Medicines Corporation, priority 2022, published 2025)
